Test results published in the NIST ThermoML archive (doi:10.1016/j.jct.2013.04.017).

Experiment: mn = molality of the nth substance listed, in mol/kg
Conditions: 101 kPa, Liquid, fixed-path interferometer

O=C(O)CC(O)(CC(=O)O)C(=O)O [citric acid] + O
speed of sound [m/s]
Conditions | 288.15 K | 293.15 K | 298.15 K | 303.15 K | 308.15 K | 313.15 K | 318.15 K | 323.15 K
m1 = 0.1003 | 1469.9 | 1485.9 | 1499.4 | 1510.9 | 1521 | 1529.8 | 1537.2 | 1542.6
m1 = 0.2504 | 1477.4 | 1492.5 | 1505.5 | 1516.2 | 1525.8 | 1533.9 | 1540.5 | 1545.9
m1 = 0.5006 | 1490.5 | 1504 | 1516.1 | 1525.7 | 1533.9 | 1541.2 | 1546.1 | 1550.7
m1 = 0.9988 | 1515 | 1526.4 | 1535.8 | 1543.3 | 1549.4 | 1554.9 | 1558.2 | 1561.1
m1 = 1.502 | 1538 | 1547.1 | 1554.4 | 1560.8 | 1565.6 | 1569.5 | 1572 | 1573.3
m1 = 2.023 | 1560.3 | 1567.1 | 1572.5 | 1576.7 | 1579.8 | 1582.2 | 1583.7 | 1582.6
m1 = 2.502 | 1578.8 | 1584.1 | 1587.9 | 1590.5 | 1592.4 | 1593.7 | 1593.9 | 1592.9
m1 = 3.006 | 1595.4 | 1598.9 | 1603 | 1603 | 1603.6 | 1603.8 | 1599.9 | 1598.2
m1 = 3.505 | 1613.1 | 1615.3 | 1616.7 | 1615.6 | 1615.2 | 1614.2 | 1612.6 | 1609.7
m1 = 3.998 | 1626.2 | 1628.7 | 1629.1 | 1626.7 | 1622.6 | 1621 | 1618.9 | 1615.4
m1 = 4.506 | 1640.7 | 1636.7 | 1641 | 1637.8 | 1635.5 | 1632.7 | 1629.6 | 1625.3
m1 = 4.997 | 1654.7 | 1653.3 | 1651.3 | 1648.6 | 1640.1 | 1635.7 | 1632.1 | 1626.1
